Measurements as given in patent publication US20190022239A1, “NOVEL BIOMOLECULE CONJUGATES AND USES THEREFOR” (The University of Western Australia, priority 2016, published 2019).
“Also recorded” adds a separate entry of the source.

What was measured:
4T1 tumour [1] = test: Tumour uptake of Evans blue dye; type: in vivo, mice; conditions: 2 μg i.v. for five days; Evans blue 30 min
Experimental: As a result of the reduced tumour ECM content and increased tumour vessel perfusion (Example 4), the inventors then evaluated the ability of tumours treated with TNFα-CSG to take op various reagents. Mice bearing 4T1 tumour were treated with 2 μg TNFα-CSG or CSG control peptide by intravenous injection for five days. Following this, mice were intravenously injected with 100 μL, of 0.9% Evans blue solution and allowed to circulate for 30 min. Tumours were then harvested and photographed.

[2] = Toxicity of repeated intravenous injections; type: in vivo; conditions: 0.5-10 μg daily i.v., total of 8 injections
Experimental: To determine potential toxicity effects of TNFα-CSG, the inventors then administered TNFα-CSG intravenously to mice (n=6) at a dose ranging from 0.5-10 μg daily, to a total of 8 injections. TNFα-CSG is non-toxic at these doses and frequency.

atherosclerotic plaque = test: TNFα-CSG therapy of aging ApoE null mice; conditions: for ALT / AST / Troponin: plasma, median (interquartile range)
Experimental: Aging ApoE null mice were treated with 10 μg TNFα-CSG or 0.8 μg CSG peptide daily for five days by intravenous injection. Tissue, including aorta and plasma, were collected from euthanised animals at 70 weeks of age. Plasma samples were collected after 1 and 10 weeks of therapy and assessed for markers of (i) circulating cholesterol (total cholesterol, HDL and LDL), (ii) cardiac necrosis (troponin) and (iii) liver damage (alanine transaminase, ALT and aspartate transaminase, AST).

4T1 tumour [3] = test: Anti-tumorigenic effect on 4T1 tumour growth; type: in vivo, mice; conditions: 2 μg, 6 injections in 2 weeks
Experimental: The inventors have also discovered that TNFα-CSG has anti-tumorigenic effects, as evidenced by reduced tumour growth and reduced cell proliferation. 4T1 tumour-bearing mice were treated with 2 μg TNFα-CSG or control CSG peptide 4 days after inoculation with 5×10^5 4T1 cells. Each mouse received a total of 6 injections in 2 weeks.

For “TNFα-CSG: Mature murine TNFα (SEQ ID NO:6) with C-terminal conjugated peptide CSGRRSSKC connected via a GGG linker; recombinant fusion protein”, the “tumour permeability to Evans blue dye vs control-treated tumours” value (4T1 tumour [1]) was “more permeable to Evans blue dye”, the toxicity [2] was “non-toxic” and the “plaque burden (plaque positive area)” value (atherosclerotic plaque; 10 μg daily i.v. for five days) was “significantly reduced plaque burden”. The “circulating HDL levels” value (atherosclerotic plaque; 10 weeks after administration) was “increase in circulating HDL levels; also recorded: significantly increased”, the “circulating LDL” value (atherosclerotic plaque; 10 weeks after administration) was “reduction in LDL” and the “plasma LDL:HDL ratio” value (atherosclerotic plaque; 10 weeks after therapy) was “reduced”. The “plasma LDL:HDL ratio” value (atherosclerotic plaque; after 1 week of therapy) was “increased”, the “activated endothelia (CD31+, endoglin+) in plaque intima” value (atherosclerotic plaque; mouse, in vivo) was “increased the expression of activate endothelia” and the “macrophage content (CD11b+) in plaque” value (atherosclerotic plaque; mouse, in vivo) was “reduced macrophage content”. The “ECM in plaque intima (collagen I, collagen IV, laminin)” value (atherosclerotic plaque; mouse, in vivo, iv) was “degraded ECM in plaque intima”, the “cardiac or liver toxicity” value (atherosclerotic plaque; plasma troponin, ALT, AST) was “did not elevate cardiac or liver toxicity” and the ALT (atherosclerotic plaque; 1 week) was 33.3 (15.4-115.5) U/L. The AST (atherosclerotic plaque; 1 week) was 106 (74.0-195.5) U/L, the Troponin (atherosclerotic plaque; 1 week) was 15.3 (10.7-30.2) ng/L and the ALT (atherosclerotic plaque; 10 weeks) was 26.0 (18.5-79.8) U/L. The AST (atherosclerotic plaque; 10 weeks) was 81.5 (52.3-184.3) U/L, the Troponin (atherosclerotic plaque; 10 weeks) was 15.1 (5.7-24.0) ng/L and the “ratio of cytotoxic T cells to immune suppressor T cells” value (4T1 tumour [3]) was “significantly higher ratio of cytotoxic T cells to immune suppressor T cells”. For the same substance, the “tumour cell proliferation (Ki67+)” value (4T1 tumour [3]) was “significant reduction in tumour cell proliferation” and the “tumour size and weight” value (4T1 tumour [3]; vs control CSG peptide) was “significantly reduced”.
